Results taken from patent publication US7968548B2, “Melanocortin receptor-specific piperazine compounds with diamine groups” (Palatin Technologies, Inc., priority 2005, dated 2011).
“And” between values parts separate entries of the source, which are not always exact repeats. Identical values can stand only once.

How the values were obtained:
MC3-R = biological target: T1, MC3-R (Homo sapiens, UniProt P41968); assay: Competitive inhibition binding assay using [I125]-NDP-α-MSH, HEK-293 membranes, recombinant hMC3-R; conditions: for inhibition at 1 µM: 1 μM compound
T1 construct: expressed in transfected cells; host or cells: HEK-293
T1 sequence (P41968 whole entry): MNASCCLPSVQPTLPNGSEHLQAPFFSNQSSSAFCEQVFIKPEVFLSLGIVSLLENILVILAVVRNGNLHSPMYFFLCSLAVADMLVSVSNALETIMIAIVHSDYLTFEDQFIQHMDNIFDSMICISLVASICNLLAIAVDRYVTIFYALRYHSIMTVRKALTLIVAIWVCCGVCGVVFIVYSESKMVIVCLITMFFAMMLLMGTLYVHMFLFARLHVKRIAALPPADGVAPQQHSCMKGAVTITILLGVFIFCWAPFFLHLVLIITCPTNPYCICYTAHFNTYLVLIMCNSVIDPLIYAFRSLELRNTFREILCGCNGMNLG
Procedure: (§1) A competitive inhibition binding assay was performed using membrane homogenates prepared from HEK-293 cells that express recombinant hMC4-R, hMC3-R, or hMC5-R, and from B-16 mouse melanoma cells (containing endogenous MC1-R). In some instances, HEK-293 cells that express recombinant hMC1-R were employed. In the examples that follow, all MC3-R, MC4-R and MC5-R values are for human recombinant receptors. MC1-R values are for B-16 mouse melanoma cells, unless the heading is “hMC1-R”, in which case the value is for human recombinant MC1-R. Assays were performed in 96 well GF/B Millipore multiscreen filtration plates (MAFB NOB10) pre-coated with 0.5% bovine serum albumin (Fraction V). […] After incubation for 60 minutes at 37° C., the assay mixture was filtered and the membranes washed three times with ice-cold buffer. Filters were dried and counted in a gamma counter for bound radioactivity. […] Maximal specific binding (100%) was defined as the difference in radioactivity (cpm) bound to cell membranes in the absence and presence of 1 μM NDP-α-MSH. […] Each assay was conducted in triplicate and the actual mean values are described, with results less than 0% reported as 0%. Ki values for test compounds were determined using Graph-Pad Prism® curve-fitting software.

MC4-R = MC4-R (Homo sapiens, UniProt P32245); assay: Competitive inhibition binding assay using [I125]-NDP-α-MSH, HEK-293 membranes, recombinant hMC4-R; parameters: expressed in transfected cells; host or cells: HEK-293; conditions: for inhibition at 1 µM: 1 μM compound
Sequence of MC4-R (P32245 whole entry): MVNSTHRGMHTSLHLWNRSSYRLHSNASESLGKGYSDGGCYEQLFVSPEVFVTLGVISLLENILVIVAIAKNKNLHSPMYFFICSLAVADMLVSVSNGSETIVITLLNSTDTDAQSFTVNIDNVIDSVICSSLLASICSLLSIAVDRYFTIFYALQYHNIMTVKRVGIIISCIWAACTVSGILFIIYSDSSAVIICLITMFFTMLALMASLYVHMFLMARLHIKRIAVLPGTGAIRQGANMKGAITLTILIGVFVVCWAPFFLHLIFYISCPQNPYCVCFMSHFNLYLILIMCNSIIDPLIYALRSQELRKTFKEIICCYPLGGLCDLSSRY
Procedure: as §1

hMC1-R = biological target: T2, hMC1-R (Homo sapiens, UniProt Q01726); assay: Competitive inhibition binding assay using [I125]-NDP-α-MSH, HEK-293 membranes, recombinant hMC1-R; conditions: human recombinant MC1-R; for inhibition at 1 µM: 1 μM compound
T2 construct: expressed in transfected cells; host or cells: HEK-293
T2 sequence (Q01726 whole entry): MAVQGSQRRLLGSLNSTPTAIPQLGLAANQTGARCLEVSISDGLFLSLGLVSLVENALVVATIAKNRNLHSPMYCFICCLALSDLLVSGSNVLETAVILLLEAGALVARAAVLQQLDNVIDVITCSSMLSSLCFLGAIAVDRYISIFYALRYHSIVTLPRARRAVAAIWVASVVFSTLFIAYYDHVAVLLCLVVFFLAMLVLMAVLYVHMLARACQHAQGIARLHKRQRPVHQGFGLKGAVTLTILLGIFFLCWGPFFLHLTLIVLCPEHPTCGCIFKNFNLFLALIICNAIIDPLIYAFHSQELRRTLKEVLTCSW
Procedure: as §1

MC5-R = biological target: T3, MC5-R (Homo sapiens, UniProt P33032); assay: Competitive inhibition binding assay using [I125]-NDP-α-MSH, HEK-293 membranes, recombinant hMC5-R; conditions: for inhibition at 1 µM: 1 μM compound
T3 construct: expressed in transfected cells; host or cells: HEK-293
T3 sequence (P33032 whole entry): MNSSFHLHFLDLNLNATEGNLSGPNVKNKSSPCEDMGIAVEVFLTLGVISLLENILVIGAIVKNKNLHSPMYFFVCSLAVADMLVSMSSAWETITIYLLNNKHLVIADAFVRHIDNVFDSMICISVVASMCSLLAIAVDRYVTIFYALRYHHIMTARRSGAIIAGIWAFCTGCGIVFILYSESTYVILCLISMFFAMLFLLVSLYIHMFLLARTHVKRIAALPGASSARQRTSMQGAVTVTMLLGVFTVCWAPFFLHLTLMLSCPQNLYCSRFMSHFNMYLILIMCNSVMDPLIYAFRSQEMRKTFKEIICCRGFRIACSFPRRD
Procedure: as §1

Row | Compound | inhibition at 1 µM (MC3-R) | inhibition at 1 µM (MC4-R) | inhibition at 1 µM (hMC1-R) | inhibition at 1 µM (MC5-R) | Ki (MC4-R) | Ki (MC3-R) | Ki (hMC1-R) | Ki (MC5-R)
1 | Cc1ccc(C[C@@H](N)CN2C[C@@H](C)N(C(=O)Cc3ccc4ccccc4c3)C[C@@H]2Cc2ccc(NCCN)cc2)c(C)c1 [Example 11, 1-{(2R,5S)-4-[(R)-2-Amino-3-(2,4-dimethyl-phenyl)-propyl]-5-[4-(2-amino-ethylamino)-benzyl]-2-methyl-piperazin-1-yl}-2-naphthalen-2-yl-ethanone] | 29% | 39% | 3% | 36% |  |  |  | 
2 | NCCNCCC[C@H]1CN(C(=O)[C@H](N)Cc2ccc(Cl)cc2Cl)[C@H](CC2CCCCC2)CN1C(=O)[C@H](N)Cc1ccc(Cl)cc1Cl [Example 15, (R)-2-Amino-1-{(2R,5S)-4-[(R)-2-amino-3-(2,4-dichloro-phenyl)-propionyl]-5-[3-(2-amino-ethylamino)-propyl]-2-cyclohexylmethyl-piperazin-1-yl}-3-(2,4-dichloro-phenyl)-propan-1-one] | 36% | 83% | 27% | 31% | 74 nM |  |  | 
3 | NCCNCCC[C@H]1CN(C(=O)[C@H](N)Cc2ccc3ccccc3c2)[C@H](CC2CCCCC2)CN1C(=O)[C@H](N)Cc1ccc2ccccc2c1 [Example 16, (R)-2-Amino-1-[(2R,5S)-5-[3-(2-amino-ethylamino)-propyl]-4-((R)-2-amino-3-naphthalen-2-yl-propionyl)-2-cyclohexylmethyl-piperazin-1-yl]-3-naphthalen-2-yl-propan-1-one] |  |  |  |  | 99 nM and 81 nM | 36 nM | 22 nM | 30 nM
4 | CC(C)C[C@@H]1CN(C(=O)[C@H](N)Cc2ccc(Cl)cc2Cl)[C@@H](CCCCNCCN)CN1C(=O)[C@H](N)Cc1ccc(Cl)cc1Cl [Example 19, (R)-2-Amino-1-{(2R,5S)-4-[(R)-2-amino-3-(2,4-dichloro-phenyl)-propionyl]-5-[4-(2-amino-ethylamino)-butyl]-2-isobutyl-piperazin-1-yl}-3-(2,4-dichloro-phenyl)-propan-1-one] | 59% | 97% | 36% | 47% | 36 nM | 327 nM | 754 nM | 296 nM

Other lines, results leading:

Row | inhibition at 1 µM (MC3-R) | inhibition at 1 µM (MC4-R) | inhibition at 1 µM (hMC1-R) | inhibition at 1 µM (MC5-R) | Ki (MC4-R) | Ki (MC3-R) | Ki (hMC1-R) | Ki (MC5-R) | Compound
5 | 22% | 83% | 35% | 43% | 81 nM |  |  |  | Cc1ccc(C[C@@H](N)C(=O)N2C[C@H](CCCNCCN)N(C(=O)[C@H](N)Cc3ccc(C)cc3C)C[C@H]2CC2CCCCC2)c(C)c1 [Example 14, (R)-2-Amino-1-{(2R,5S)-4-[(R)-2-amino-3-(2,4-dimethyl-phenyl)-propionyl]-5-[3-(2-amino-ethylamino)-propyl]-2-cyclohexylmethyl-piperazin-1-yl}-3-(2,4-dimethyl-phenyl)-propan-1-one]
6 | 14% | 83% | 22% | 38% | 60 nM |  |  |  | Cc1ccc(C[C@@H](N)C(=O)N2C[C@H](CCCNCCN)N(C(=O)[C@H](N)Cc3ccc(C)cc3C)C[C@H]2CC(C)C)c(C)c1 [Example 17, (R)-2-Amino-1-{(2S,5R)-4-[(R)-2-amino-3-(2,4-dimethyl-phenyl)-propionyl]-2-[3-(2-amino-ethylamino)-propyl]-5-isobutyl-piperazin-1-yl}-3-(2,4-dimethyl-phenyl)-propan-1-one]
7 | 55% | 95% | 39% | 51% | 83 nM | 1050 nM | 567 nM | 450 nM | Cc1ccc(C[C@@H](N)C(=O)N2C[C@H](CCCCNCCN)N(C(=O)[C@H](N)Cc3ccc(C)cc3C)C[C@H]2CC(C)C)c(C)c1 [Example 21, (R)-2-Amino-1-{(2R,5S)-4-[(R)-2-amino-3-(2,4-dimethyl-phenyl)-propionyl]-5[4-(2-amino-ethylamino)-butyl]-2-isobutyl-piperazin-1-yl}-3-(2,4-dimethyl-phenyl)-propan-1-one]
